Patent US9844546B2, “Antibody against human HIF hydroxylase” (OXFORD UNIVERSITY INNOVATION LIMITED, priority 2001, dated 2017)
Read-outs that look alike come from different tables or passages of the source.

B1: NODD: HIF-1α amino terminal ODD polypeptide (aa 343-417) with nuclear localisation sequences and c-myc tag, plasmid expressed (protein, UniProt Q16665 343-417, looked up, fragment)
chain: SGIIQHDLIFSLQQTECVLKPVESSDMKMTQLFTKVESEDTSSLFDKLKKEPDALTLLAPAAGDTIISLDFGSND
modifications: NLS and c-myc tag

What was measured:
[1] = test system: HIF-α prolyl-hydroxylase (HIF-PH) of cell extract; assay: Modifying activity (HIF-PH) of cell extract on HIF substrate (Gal/HIF-1α549-582/VP16 or 19:WT), pVHL capture assay; assay type: biochemical, mammalian
Experimental: The unlabelled HIF-1α substrate was immunopurified on beads, washed, and aliquots incubated under different test conditions in buffer or cell extract. After further washing, the beads were assayed for ability to interact with 35-S labelled pVHL IVTT (21) which was then visualised by fluorography.
The capture of labelled pVHL by different HIF substrates was monitored after exposure to various test conditions.
We went on to test a series of 2-oxoglutarate analogues which act as competitive inhibitors of this class of enzyme (29) for ability to inhibit HIF-PH as assessed by the ability of cell extracts to modify either HIF polypeptide (19:WT) or a HIF fusion protein (Gal/HIF-1α549-582/VP16) so as to promote pVHL capture. […] In one such experiment the effect of N-oxalylglycine on pVHL capture by a biotinylated HIF polypeptides as substrate was monitored. The WT:19 and 19:Pro564Hyp polypeptides described above were used as substrates. […] The effect of dimethyl-oxalyglycine on HIF-1α expression was also studied. HIF-1α immunoblot analysis of extracts of Hep3B and U2OS cells exposed to dimethyl-oxalylgylcine (0, 0.1 or 1.0 mM) for 6 hours was carried out. […]

[2] = test system: HIF hydroxylase (HPH activity); assay: HIF hydroxylase (HPH) inhibition, statements of the description; assay type: biochemical
[3] = target: T1, HIF-1/VHL-1 interaction promoting activity of worm extract (Caenorhabditis elegans, UniProt G5EBV0); assay: Worm extract modification of C. elegans HIF-1, HA.VHL-1 interaction assay; assay type: biochemical; conditions: antagonized by 5 mM 2-OG
T1 construct: from tissue; host or cells: whole-worm homogenate in hypotonic extraction buffer
T1 sequence (G5EBV0 whole entry): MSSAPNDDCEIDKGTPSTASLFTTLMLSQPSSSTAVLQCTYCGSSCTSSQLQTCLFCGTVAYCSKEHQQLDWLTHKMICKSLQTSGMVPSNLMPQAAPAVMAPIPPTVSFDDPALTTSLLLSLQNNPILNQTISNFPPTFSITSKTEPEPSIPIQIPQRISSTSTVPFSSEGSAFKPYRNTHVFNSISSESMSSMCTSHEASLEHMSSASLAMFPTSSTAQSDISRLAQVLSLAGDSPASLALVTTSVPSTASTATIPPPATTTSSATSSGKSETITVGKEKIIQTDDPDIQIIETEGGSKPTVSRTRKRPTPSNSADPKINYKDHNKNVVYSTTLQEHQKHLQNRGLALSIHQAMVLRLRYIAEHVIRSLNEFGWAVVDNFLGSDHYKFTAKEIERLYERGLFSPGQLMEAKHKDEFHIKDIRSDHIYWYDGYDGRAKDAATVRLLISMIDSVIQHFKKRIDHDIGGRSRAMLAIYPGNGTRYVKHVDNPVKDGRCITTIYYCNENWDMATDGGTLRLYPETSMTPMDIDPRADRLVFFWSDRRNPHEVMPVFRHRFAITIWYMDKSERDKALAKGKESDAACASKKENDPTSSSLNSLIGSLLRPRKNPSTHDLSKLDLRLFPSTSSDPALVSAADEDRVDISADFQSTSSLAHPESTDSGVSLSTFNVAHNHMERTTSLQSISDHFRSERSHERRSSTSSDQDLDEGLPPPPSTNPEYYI
Experimental: Assays for interaction between recombinant VHL and HIF polypeptides conformed to the following experimental design. Recombinant VHL and HIF polypeptides were produced separately in vitro. The HIF polypeptide was then pre-incubated with extract or a recombinant enzyme as described below, then mixed with VHL and incubated in EBC buffer (50 mM Tris pH 7.5, 150 mM NaCl, 0.5% v/v Igepal, 0.5 mM EDTA) at 4° C. for 1 hour, before immunoprecipitation with anti HA antibodies (for HA tagged VHL) or anti Gal antibodies (for Gal4HIF fusions) and analysis by PAGE (Jaakkola et al. (2001) supra).
Preincubation of C. elegans HIF-1 with worm extract or recombinant EGL-9 was for 30 min at 25° C. Preincubation of mammalian HIF-α polypeptides with cell extract or recombinant enzymes was at 37° C. for 10-30 min unless otherwise stated. For assays of recombinant enzymes, 2-oxoglutarate (2 mM), iron (100 μM), and ascorbate (2 mM) were added to the reaction buffer unless otherwise indicated. Reactions performed in hypoxia were in the stated atmospheric oxygen concentration (balance nitrogen) obtained using a controlled environment Invivo2 400 hypoxia work-station (Ruskinn Technologies) and buffers pre-equilibrated with the appropriate atmosphere. Reactions (50 μl) were performed in open Eppendorf tubes with mixing and stopped by the addition of 20 volumes desferrioxamine (100 μM}. […]

clavaminate synthase = assay: Clavaminate synthase inhibition under standard assay conditions; assay type: biochemical, Streptomyces clavligerus
Excerpt: These are commonly methyl or ethyl esters although others are possible.

VHL E3 ubiquitin ligase = target: T2, VHL E3 ubiquitin ligase (Homo sapiens, UniProt P40337); assay: VHL E3 interaction assay with 35S-labelled tat-ODD IVTT products; assay type: binding; conditions: after modification by cell extracts
T2 construct: expressed in transfected cells; host or cells: 786-0 cells stably transfected with pcDNA3 VHL.HA (whole extract, anti-HA immunoprecipitation)
T2 sequence (P40337 whole entry): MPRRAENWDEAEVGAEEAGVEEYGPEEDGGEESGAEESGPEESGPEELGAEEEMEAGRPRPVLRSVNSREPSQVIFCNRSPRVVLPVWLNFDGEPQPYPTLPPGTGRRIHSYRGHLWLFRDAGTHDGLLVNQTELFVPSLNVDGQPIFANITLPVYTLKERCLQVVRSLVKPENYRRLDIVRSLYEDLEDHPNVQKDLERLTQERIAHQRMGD
T2 sequence (Q15370 whole entry partner): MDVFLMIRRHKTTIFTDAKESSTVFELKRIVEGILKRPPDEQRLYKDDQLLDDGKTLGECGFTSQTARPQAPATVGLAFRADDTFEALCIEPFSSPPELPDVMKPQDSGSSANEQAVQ
T2 sequence (Q15369 whole entry partner): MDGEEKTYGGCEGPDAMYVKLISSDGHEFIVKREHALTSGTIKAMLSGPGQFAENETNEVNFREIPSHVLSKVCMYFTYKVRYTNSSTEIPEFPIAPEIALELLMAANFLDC
T2 sequence (Q13617 whole entry partner): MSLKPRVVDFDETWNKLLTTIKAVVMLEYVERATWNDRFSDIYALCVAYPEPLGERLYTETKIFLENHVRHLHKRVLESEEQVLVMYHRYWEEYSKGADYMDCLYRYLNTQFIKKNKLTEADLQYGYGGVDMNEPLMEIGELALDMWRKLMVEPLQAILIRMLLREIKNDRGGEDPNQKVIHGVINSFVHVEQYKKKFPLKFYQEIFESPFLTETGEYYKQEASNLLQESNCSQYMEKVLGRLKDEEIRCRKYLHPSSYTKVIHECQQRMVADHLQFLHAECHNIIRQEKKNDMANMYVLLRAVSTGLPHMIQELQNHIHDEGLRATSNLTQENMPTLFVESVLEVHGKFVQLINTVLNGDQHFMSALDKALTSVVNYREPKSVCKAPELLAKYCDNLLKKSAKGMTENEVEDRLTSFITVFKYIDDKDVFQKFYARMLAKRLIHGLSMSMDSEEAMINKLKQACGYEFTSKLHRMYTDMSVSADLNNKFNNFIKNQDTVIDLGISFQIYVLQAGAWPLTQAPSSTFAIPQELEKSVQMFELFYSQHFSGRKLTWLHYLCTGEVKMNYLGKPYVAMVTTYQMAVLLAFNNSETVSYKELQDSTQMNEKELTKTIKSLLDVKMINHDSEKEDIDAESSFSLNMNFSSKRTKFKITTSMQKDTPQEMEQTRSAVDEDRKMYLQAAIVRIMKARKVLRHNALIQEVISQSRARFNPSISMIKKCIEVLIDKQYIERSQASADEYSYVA
T2 sequence (P62877 whole entry partner): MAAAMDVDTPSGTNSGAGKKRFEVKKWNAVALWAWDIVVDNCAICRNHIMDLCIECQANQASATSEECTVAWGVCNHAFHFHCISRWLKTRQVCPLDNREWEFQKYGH
Excerpt: Concordant with the ubiquitination assays discussed above NODD (HIF-1α 343-417) and CODD (HIF-1α 549-582) polypeptides, but not their corresponding proline mutants (HIF-1α 343-417/P402A and HIF-1α 549-582/P564G), bound to VHL E3 ubiquitin ligase after modification by cell extracts. The ^35S-methionine labelled recombinant polypeptides therefore interacted with VHL, supporting the results of the ubiquitination experiments discussed above. The interaction was enhanced by the presence of cell extracts which promote hydroxylation of the prolines at positions 402 and 564 ^19. In contrast, no binding occurred using peptides in which prolines were mutated.
For VHL E3 interaction assays ^35S-methionine labelled HIF-1a substrates were prepared by transcription/translation using TnT7 rabbit reticulocyte lysate (Promega). 100 μM DFO was added to the reaction to suppress prolyl hydroxylase activity of the reticulocyte lysate. Substrate modification was achieved by incubation of HIF-1α translate with RCC4 cell lysate in the presence of ferrous chloride (100 μM). Interaction with VHL E3 was analysed as described previously ^21.

U2OS cells = U2OS cells stably transfected with doxycycline-inducible NODD or CODD; assay type: cell-based, human; conditions: doxycycline 0.2-3.2 μg/ml, peaking after 48 hours
Experimental: To explore further the therapeutic potential of NODD and CODD polypeptides to activate endogenous HIF we stably transfected U2OS cells with doxycycline-inducible NODD (doxNODD) and CODD constructs (doxCODD) encoding identical sequences to those used for transient transfections.
Cells stably transfected with NODD or CODD controlled by the tetracycline-inducible system were exposed to doxycycline. Cell extracts were prepared 0, 16, 24 and 48 hours after exposure to doxycycline. The extracts of doxNODD (HIF-1α aa343-417), doxCODD (HIF-1α aa549-82) and control cells (empty vector) were then immunoblotted for HIF-1α protein. Increased HIF-1α signals were detected from 16-48 hours following doxycycline administration in doxNODD and doxCODD cells but not in empty vector cells. Levels of HIF-1α induced by hypoxia were also measured for comparison. The endogenous HIF-1α induction was doxycycline dose (0.2-3.2 μg/ml) and time dependent, peaking after 48 hours. Maximal levels were about 20% and about 70% of HIF-1α levels seen following hypoxic or DFO treatment of the doxNODD and doxCODD cells respectively. […]
Stably transfected cell lines were generated by transfecting U2OS cells bearing the reverse tetracycline responsive transactivator ^34 and the tetKRAB silencer construct ^36 with pUHD/HIF plasmids. Following selection in G418 (1 mg/ml) individual colonies were picked. DoxNODD (F21) and doxCODD (myc19) clones expressed pUHD/HIF-1aa343-417/3NLS/c-myc and pUHD/HIF-1α aa549-82/3NLS/c-myc respectively. […]
Cell extracts were prepared in buffer (8M urea, 10% glycerol, 1% SDS, 5 mM DTT, 10 mM Tris/pH 6.8), separated by SDS-PAGE and transferred to Immobilon-P membrane (Millipore). Primary antibodies against HIF-1α, c-myc tag and HA tag were from Transduction Laboratories, Innogenex and Roche Molecular respectively. […]

U2OS and Hep3B cells = assay: HRE-dependent luciferase reporter assay after transient transfection of NODD/CODD plasmids; assay type: cell-based, human; conditions: normoxic conditions, 24 hours
Excerpt: Since normoxic HIFα degradation is saturable ^17 and depends on sub-regions within the ODD we tested whether peptides encoding the HIF-1α amino terminal ODD (NODD) and carboxy terminal ODD (CODD) ^21 could affect HIF activity as measured by hypoxia response element (HRE)-dependent reporter gene expression. Briefly, Degradation is prevented by the NODD and CODD polypeptides competing for prolyl hydroxylation and/or VHL binding, thereby blocking subsequent ubiquitination. We constructed plasmids encoding NODD (HIF-1-α aa 343-417) or CODD (HIF-1-α aa 549-582) linked to nuclear localisation sequences and a c-myc epitope tag. These plasmids were transiently co-transfected into U2OS and Hep3B cells with an HRE-dependent luciferase reporter plasmid. […]
For reporter gene assays DNA fragments encoding HIF-1α amino acids 343-417, 380-417, 390-417, 390-410, 343-400, 530-95, 530-82, 549-82, 556-74 and 530-62 were generated by PCR using oligonucleotides containing 5′ SacII or 3′ AscI sites and inserted into a pCMV/myc/nuc (Invitrogen) derivative bearing these sites in frame with the NLS and epitope tag. […] To generate tet-operator dependent plasmids the open reading frames from the aa343-417 and aa549-82 constructs were subcloned into pUHD 10 ^34. […]

Molecule	inhibitory activity on HIF-1α modification, comparison of enantiomers ([1]; 0-2000 μM, RCC4 cell extract)	inhibition of HIF hydroxylase / HPH [2]	inhibition of HIF hydroxylase / HPH ([2]; listed as (S) oxaloalanine)	inhibition of worm extract activity promoting HIF-1/HA.VHL-1 interaction [3]	inhibition of clavaminate synthase (clavaminate synthase)	pVHL binding after treatment with cell extract in the presence of inhibitor ([1]; 1 mM)	pVHL binding after treatment with cell extract in the presence of inhibitor ([1]; 5 mM)	binding to VHL E3 ubiquitin ligase (VHL E3 ubiquitin ligase)	Maximal HIF-1α level relative to hypoxic or DFO treatment (U2OS cells)	HRE-dependent relative luciferase activity (U2OS and Hep3B cells)
C[C@H](NC(=O)C(=O)O)C(=O)O [N-oxalyl-2S-alanine]	higher inhibitory activity	act as inhibitors	preferred inhibitor	strongly inhibited activity						
O=C(O)CNC(=O)CCS [N-(Mercaptopropionyl)glycine]		inhibitors of HPH			not an inhibitor	strong binding of pVHL	reduced the amount of pVHL binding			
B1								bound	about 20%	increased relative luciferase activity
